From US6914045B2, “Glycopeptide antibiotics” (Wyeth Holdings Corporation, priority 2001, dated 2005)
≈ marks a conversion by molar mass, not a printed value. Numbered stars: 1 amine (or outer) side, 2 acyl side, 3 side chain; on linkers, the order of the positions; unused ones are H or OH. Square brackets hold non-standard residues; d marks the D form. Peptide text beside a SMILES is read from it. * marks the point of attachment. ξ: configuration not given here. X1 = N=C1NCC(C(O)C(N[*:1])C(=O)[*:2])N1C1OC(CO)C(O)C(O)C1O; ξEnduracididine(βξ-OH,4'ξ) = N=C1NCC(C(O)C(N)C(=O)O)N1; X2 = OCC1OC(OC2C(CO)OC(*)C(O)C2O)C(O)C(O)C1O; Diphenylacetyl = O=C(C(c1ccccc1)c1ccccc1)*; ξPhe(βξ-Me) = CC(c1ccccc1)C(N)C(=O)O

How the values were obtained:
Test in all cases: in vitro antibacterial evaluation, MIC by broth dilution
Format in all cases: cell-based
Enterococcus sp. = conditions: broth dilution, 18 hours at 35° C.
Method in brief: (§1)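 Step 1: dilute antibiotic across 64-0.06 μg/mL in Muller-Hinton II […]. Step 2: inoculate at 5×10^5 CFU/mL.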

Staphylococcus sp. = tested on: Staphylococcus sp.
Method in brief: as §1

Streptococcus sp. = conditions: broth dilution, 18 hours at 35° C.
Method in brief: as §1

Escherichia coli = conditions: 18 hours at 35° C.
Method in brief: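 MIC is the lowest antibiotic concentration (tested 64-0.06 μg/mL) preventing growth of a 5×10^5 CFU/mL inoculum. Determined by broth dilution in Mueller-Hinton II medium following NCCLS standard M7-A2.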

[1] = broth dilution, 18 hours at 35° C.
[2] = strain ATCC 29213; broth dilution, 18 hours at 35° C.
[3] = strain GC 1131; broth dilution, 18 hours at 35° C.
[4] = strain GC 4541; broth dilution, 18 hours at 35° C.
[5] = strain GC 4542; broth dilution, 18 hours at 35° C.
[6] = strain GC 4544; broth dilution, 18 hours at 35° C.
[7] = strain GC 4545; broth dilution, 18 hours at 35° C.

CC(c1ccccc1)C1NC(=O)CNC(=O)C(COC(=O)C(c2ccccc2)c2ccccc2)NC(=O)C(C(O)C2CNC(=N)N2C2OC(CO)C(O)C(O)C2O)NC(=O)C(C(O)C2CNC(=N)N2)NC(=O)C(Cc2ccc(OC3OC(CO)C(OC4OC(CO)C(O)C(O)C4O)C(O)C3O)cc2)NC1=O (stereo not drawn) [Example 96a, Cyclo[glycyl-β-methylphenylalanyl-O-(4-O-hexopyranosylhexopyranosyl)tyrosyl-3-(2-iminoimidazolidin-4-yl)seryl-3-(3-hexopyranosyl-2-iminoimidazolidin-4-yl)seryl-O-(diphenylacetyl)-seryl]] (cyclo(G[ξPhe(βξ-Me)]Y(X2)[ξEnduracididine(βξ-OH,4'ξ)][X1]S(Diphenylacetyl)); configuration not given here)
MIC Enterococcus avium (GC 4558) (Enterococcus sp.; Enterococcus avium (GC 4558)): >128 µg/mL
MIC Enterococcus faecalis (ATCC 29212) (Enterococcus sp.; Enterococcus faecalis (ATCC 29212)): >128 µg/mL
MIC Enterococcus faecalis (GC 2242) (Enterococcus sp.; Enterococcus faecalis (GC 2242)): >128 µg/mL
MIC Enterococcus faecalis (GC 4552) (Enterococcus sp.; Enterococcus faecalis (GC 4552)): >128 µg/mL
MIC Enterococcus faecalis (GC 4553) (Enterococcus sp.; Enterococcus faecalis (GC 4553)): >128 µg/mL
MIC Enterococcus faecalis (GC 4554) (Enterococcus sp.; Enterococcus faecalis (GC 4554)): >128 µg/mL
MIC Enterococcus faecium (GC 2243) (Enterococcus sp.; Enterococcus faecium (GC 2243)): 128 µg/mL (≈ 85.9 µM)
MIC Enterococcus faecium (GC 4556) (Enterococcus sp.; Enterococcus faecium (GC 4556)): >128 µg/mL
MIC Enterococcus faecium (GC 4557) (Enterococcus sp.; Enterococcus faecium (GC 4557)): 32 µg/mL (≈ 21.5 µM)
MIC Enterococcus avium (GC 4558) (Enterococcus sp.): >128 µg/mL
MIC Enterococcus faecalis (ATCC 29212) (Enterococcus sp.): >128 µg/mL
MIC Enterococcus faecalis (GC 2242) (Enterococcus sp.): >128 µg/mL
MIC Enterococcus faecalis (GC 4552) (Enterococcus sp.): >128 µg/mL
MIC Enterococcus faecalis (GC 4553) (Enterococcus sp.): >128 µg/mL
MIC Enterococcus faecalis (GC 4554) (Enterococcus sp.): >128 µg/mL
MIC Enterococcus faecium (GC 2243) (Enterococcus sp.): 128 µg/mL (≈ 85.9 µM)
MIC Enterococcus faecium (GC 4556) (Enterococcus sp.): >128 µg/mL
MIC Enterococcus faecium (GC 4557) (Enterococcus sp.): 32 µg/mL (≈ 21.5 µM)
MIC Coagulase Negative Staphylococcus (GC 4547) (Staphylococcus sp.; [1]): 128 µg/mL (≈ 85.9 µM)
MIC Coagulase Negative Staphylococcus (GC 4548) (Staphylococcus sp.; [1]): >128 µg/mL
MIC Coagulase Negative Staphylococcus (GC 4549) (Staphylococcus sp.; [1]): 64 µg/mL (≈ 43 µM)
MIC Coagulase Negative Staphylococcus (GC 4551) (Staphylococcus sp.; [1]): 128 µg/mL (≈ 85.9 µM)
MIC Coagulase Negative Staphylococcus (ID-3941) (Staphylococcus sp.; [1]): 64 µg/mL (≈ 43 µM)
MIC Staphylococcus aureus-SMITH (GC 4543) (Staphylococcus sp.; [1]): >128 µg/mL
MIC Staphylococcus haemolyticus (GC 4546) (Staphylococcus sp.; [1]): 128 µg/mL (≈ 85.9 µM)
MIC Staphylococcus haemolyticus (GC 4546) (Staphylococcus sp.; broth dilution, 18 hours at 35° C.; strain GC 4546): 128 µg/mL (≈ 85.9 µM)
MIC Coagulase Negative Staphylococcus (GC 4547) (Staphylococcus sp.; broth dilution, 18 hours at 35° C.; strain GC 4547): 128 µg/mL (≈ 85.9 µM)
MIC Coagulase Negative Staphylococcus (GC 4548) (Staphylococcus sp.; broth dilution, 18 hours at 35° C.; strain GC 4548): >128 µg/mL
MIC Coagulase Negative Staphylococcus (GC 4549) (Staphylococcus sp.; broth dilution, 18 hours at 35° C.; strain GC 4549): 64 µg/mL (≈ 43 µM)
MIC Coagulase Negative Staphylococcus (GC 4551) (Staphylococcus sp.; broth dilution, 18 hours at 35° C.; strain GC 4551): 128 µg/mL (≈ 85.9 µM)
MIC Coagulase Negative Staphylococcus (ID-3941) (Staphylococcus sp.; broth dilution, 18 hours at 35° C.; strain ID-3941): 64 µg/mL (≈ 43 µM)
MIC Staphylococcus aureus-SMITH (GC 4543) (Staphylococcus sp.; broth dilution, 18 hours at 35° C.; strain SMITH GC 4543): >128 µg/mL
MIC Staphylococcus aureus (ATCC 29213) (Staphylococcus sp.; [2]): >128 µg/mL
MIC Staphylococcus aureus (GC 1131) (Staphylococcus sp.; [3]): >128 µg/mL
MIC Staphylococcus aureus (GC 4541) (Staphylococcus sp.; [4]): 128 µg/mL (≈ 85.9 µM)
MIC Staphylococcus aureus (GC 4542) (Staphylococcus sp.; [5]): >128 µg/mL
MIC Staphylococcus aureus (GC 4544) (Staphylococcus sp.; [6]): >128 µg/mL
MIC Staphylococcus aureus (GC 4545) (Staphylococcus sp.; [7]): >128 µg/mL
MIC Streptococcus agalactiae (GC 4564) (Streptococcus sp.; Streptococcus agalactiae (GC 4564)): 32 µg/mL (≈ 21.5 µM)
MIC Streptococcus pneumoniae (GC 4565) (Streptococcus sp.; Streptococcus pneumoniae (GC 4565)): 16 µg/mL (≈ 10.7 µM)
MIC Streptococcus pyogenes (ID-3187) (Streptococcus sp.; Streptococcus pyogenes (ID-3187)): 32 µg/mL (≈ 21.5 µM)
MIC Streptococcus agalactiae (GC 4564) (Streptococcus sp.): 32 µg/mL (≈ 21.5 µM)
MIC Streptococcus pneumoniae (GC 4565) (Streptococcus sp.): 16 µg/mL (≈ 10.7 µM)
MIC Streptococcus pyogenes (ID-3187) (Streptococcus sp.): 32 µg/mL (≈ 21.5 µM)
MIC Escherichia coli (ATCC 25922) (Escherichia coli): >128 µg/mL

CC(C)=CCCC(C)=CCCC(C)=CCOc1cccc(C2OCC3OC(OC4C(CO)OC(Oc5ccc(CC6NC(=O)C(C(C)c7ccccc7)NC(=O)CNC(=O)C(CO)NC(=O)C(C(O)C7CNC(=N)N7C7OC(CO)C(O)C(O)C7O)NC(=O)C(C(O)C7CNC(=N)N7)NC6=O)cc5)C(O)C4O)C(O)C(O)C3O2)c1 (centres unmarked) [Example 185]
MIC Enterococcus avium (GC 4558) (Enterococcus sp.): 64 µg/mL (≈ 39.9 µM)
MIC Enterococcus faecalis (ATCC 29212) (Enterococcus sp.): >64 µg/mL
MIC Enterococcus faecalis (GC 2242) (Enterococcus sp.): >64 µg/mL
MIC Enterococcus faecalis (GC 2691) (Enterococcus sp.): >64 µg/mL
MIC Enterococcus faecalis (GC 3059) (Enterococcus sp.): >64 µg/mL
MIC Enterococcus faecalis (GC 4552) (Enterococcus sp.): >64 µg/mL
MIC Enterococcus faecalis (GC 4553) (Enterococcus sp.): 32 µg/mL (≈ 20 µM)
MIC Enterococcus faecalis (GC 4554) (Enterococcus sp.): >64 µg/mL
MIC Enterococcus faecalis (GC 6189) (Enterococcus sp.): >64 µg/mL
MIC Enterococcus faecium (GC 2243) (Enterococcus sp.): 32 µg/mL (≈ 20 µM)
MIC Enterococcus faecium (GC 4556) (Enterococcus sp.): >64 µg/mL
MIC Enterococcus faecium (GC 4557) (Enterococcus sp.): >64 µg/mL
MIC Enterococcus faecalis (ATCC 29212) (Enterococcus sp.; inoculum 5×10^5 CFU/mL, strain ATCC 29212): >64 µg/mL
MIC Enterococcus faecalis (GC 2242) (Enterococcus sp.; inoculum 5×10^5 CFU/mL, strain GC 2242): >64 µg/mL
MIC Enterococcus faecium (GC 2243) (Enterococcus sp.; inoculum 5×10^5 CFU/mL, strain GC 2243): 32 µg/mL (≈ 20 µM)
MIC Enterococcus faecalis (GC 2691) (Enterococcus sp.; inoculum 5×10^5 CFU/mL, strain GC 2691): >64 µg/mL
MIC Enterococcus faecalis (GC 3059) (Enterococcus sp.; inoculum 5×10^5 CFU/mL, strain GC 3059): >64 µg/mL
MIC Enterococcus faecalis (GC 4552) (Enterococcus sp.; inoculum 5×10^5 CFU/mL, strain GC 4552): >64 µg/mL
MIC Enterococcus faecalis (GC 4553) (Enterococcus sp.; inoculum 5×10^5 CFU/mL, strain GC 4553): 32 µg/mL (≈ 20 µM)
MIC Enterococcus faecalis (GC 4554) (Enterococcus sp.; inoculum 5×10^5 CFU/mL, strain GC 4554): >64 µg/mL
MIC Enterococcus faecium (GC 4556) (Enterococcus sp.; inoculum 5×10^5 CFU/mL, strain GC 4556): >64 µg/mL
MIC Enterococcus faecium (GC 4557) (Enterococcus sp.; inoculum 5×10^5 CFU/mL, strain GC 4557): >64 µg/mL
MIC Enterococcus avium (GC 4558) (Enterococcus sp.; inoculum 5×10^5 CFU/mL, strain GC 4558): 64 µg/mL (≈ 39.9 µM)
MIC Enterococcus faecalis (GC 6189) (Enterococcus sp.; inoculum 5×10^5 CFU/mL, strain GC 6189): >64 µg/mL
MIC Staphylococcus aureus (GC 1131) (Staphylococcus sp.; broth dilution, 18 hours at 35° C., inoculum 5×10^5 CFU/mL; strain GC 1131): >64 µg/mL
MIC Staphylococcus aureus (ATCC 29213) (Staphylococcus sp.; [2]): >64 µg/mL
MIC Staphylococcus aureus (GC 1131) (Staphylococcus sp.; [3]): >64 µg/mL
MIC Staphylococcus aureus (GC 3051) (Staphylococcus sp.; strain GC 3051; broth dilution, 18 hours at 35° C.): >64 µg/mL
MIC Staphylococcus aureus (GC 3053) (Staphylococcus sp.; strain GC 3053; broth dilution, 18 hours at 35° C.): >64 µg/mL
MIC Staphylococcus aureus (GC 4541) (Staphylococcus sp.; [4]): >64 µg/mL
MIC Staphylococcus aureus (GC 4542) (Staphylococcus sp.; [5]): >64 µg/mL
MIC Staphylococcus aureus-SMITH (GC 4543) (Staphylococcus sp.; strain GC 4543; broth dilution, 18 hours at 35° C.): >64 µg/mL
MIC Staphylococcus aureus (GC 4544) (Staphylococcus sp.; [6]): >64 µg/mL
MIC Staphylococcus aureus (GC 4545) (Staphylococcus sp.; [7]): >64 µg/mL
MIC Staphylococcus haemolyticus (GC 4546) (Staphylococcus sp.; strain GC 4546; broth dilution, 18 hours at 35° C.): >64 µg/mL
MIC Coagulase Negative Staphylococcus (GC 4547) (Staphylococcus sp.; strain GC 4547; broth dilution, 18 hours at 35° C.): >64 µg/mL
MIC Coagulase Negative Staphylococcus (GC 4548) (Staphylococcus sp.; strain GC 4548; broth dilution, 18 hours at 35° C.): >64 µg/mL
MIC Coagulase Negative Staphylococcus (GC 4549) (Staphylococcus sp.; strain GC 4549; broth dilution, 18 hours at 35° C.): >64 µg/mL
MIC Coagulase Negative Staphylococcus (GC 4551) (Staphylococcus sp.; strain GC 4551; broth dilution, 18 hours at 35° C.): >64 µg/mL
MIC Coagulase Negative Staphylococcus (GC 6257) (Staphylococcus sp.; strain GC 6257; broth dilution, 18 hours at 35° C.): >64 µg/mL
MIC Streptococcus agalactiae (GC 4564) (Streptococcus sp.): 1 µg/mL (≈ 0.624 µM)
MIC Streptococcus pneumoniae (ATCC 6301) (Streptococcus sp.): 0.12 µg/mL (≈ 0.0748 µM)
MIC Streptococcus pneumoniae (GC 1894) (Streptococcus sp.): <0.06 µg/mL
MIC Streptococcus pneumoniae (GC 4565) (Streptococcus sp.): <0.06 µg/mL
MIC Streptococcus pyogenes (GC 4563) (Streptococcus sp.): 16 µg/mL (≈ 9.98 µM)
MIC Streptococcus pneumoniae (ATCC 6301) (Streptococcus sp.; inoculum 5×10^5 CFU/mL, strain ATCC 6301): 0.12 µg/mL (≈ 0.0748 µM)
MIC Streptococcus pneumoniae (GC 1894) (Streptococcus sp.; inoculum 5×10^5 CFU/mL, strain GC 1894): <0.06 µg/mL
MIC Streptococcus pyogenes (GC 4563) (Streptococcus sp.; inoculum 5×10^5 CFU/mL, strain GC 4563): 16 µg/mL (≈ 9.98 µM)
MIC Streptococcus agalactiae (GC 4564) (Streptococcus sp.; inoculum 5×10^5 CFU/mL, strain GC 4564): 1 µg/mL (≈ 0.624 µM)
MIC Streptococcus pneumoniae (GC 4565) (Streptococcus sp.; inoculum 5×10^5 CFU/mL, strain GC 4565): <0.06 µg/mL
MIC Escherichia coli (ATCC 25922) (Escherichia coli): >64 µg/mL
MIC Escherichia coli (GC 4559) (Escherichia coli): >64 µg/mL
MIC Escherichia coli (GC 4560) (Escherichia coli): >64 µg/mL
